Patent US8138315B2, “Anti-alpha V immunoliposome compositions, methods and uses” (Centocor Ortho Biotech Inc., priority 2007, dated 2012)

Legend:
A375.S2 cells = experiment: Binding and internalization of liposomes at 37° C., confocal microscopy; type: cell-based, human; conditions: 37° C. for 10 min, washed, incubated 1 hour
Protocol: (§1) Several human tumor cells bearing human αVβ3/5 integrins were used: (1) A375.S2, human melanoma cell line; (2) MDA-MB-231, Human Breast Carcinoma Cell line; (3) A2780, Human Ovarian Carcinoma Cell line; (4) HT29, Human Colon Carcinoma Cell line; (5) A549, Human Lung Carcinoma Cell line.
Liposomes were prepared as described in Example 1, except in two aspects. First, Dextran Alexa Fluor 488 (Cat No. D-22910, from Molecular Probes) was included in the hydration buffer during the passive encapsulation step of liposome formation, and after the sizing step dialysis was used to remove any unencapsulated Alexa. Second, instead of inserting Fab-PEG-lipid into the liposome bilayer, maleimide-PEG-lipid (MalPEG-DSPE) was inserted into the liposome bilayer at approximately 800 MalPeg-DSPE per liposome at 60° C. for 1 Hr. The insertion step was followed by the conjugation of the Fab to the reactive end of the lipopolymer. The appropriate amount of Fab was added to the MalPEG-DSPE inserted liposomes to achieve a 90:1 anti-alphaV-Fab targeting ligands per liposome ratio. These liposomes were used in the binding and internalization studies described below. […]
A375.S2 cells were harvested by scraping and then resuspended to obtain individualized cells and rejuvenated for 1 hour, at 37° C. About 1 million cells of each tumor type were counted and distributed into individual centrifugation tubes. […]

[1] = test system: murine melanoma cell line, B16F10; experiment: Cytotoxicity assay (cell viability, CellTiter 96), negative control; type: cell-based; set-up: unit not given beside the values; conditions: Murine melanoma B16-F10; 10 minutes at 37° C., washed, plated 3 and 6 days
[2] = test system: A375.S2, human melanoma cell line; experiment: Cytotoxicity assay (cell viability, CellTiter 96); type: cell-based; set-up: unit not given beside the values; conditions: 10 minutes at 37° C., washed, plated 3 and 6 days
Protocol: as §1
(§2) Cell viability was assayed using the CellTiter 96 AQueous One Solution Cell Proliferation Assay from Promega (Cat No. G3581). A Spectra Max 250 plate reader was used, with a reading wavelength of 490 nm. Confocal Microscopy was done using a Nikon, Eelipse, E600. An Eppendorf centrifuge 5804 was used.
(§3) Liposomes bearing 15:1, 40:1, 90:1 and 180:1 alpha-integrin Fab targeting ligands per liposome and containing doxorubicin were prepared as described in Example 1 and 2. These targeted-liposomes were used in the cytotoxicity assay using the various cells lines, as described below.
(§4) Cells were harvested by scraping and then resuspended at 37° C. for 1 hour to obtain individualized cells. About 1 million cells of each tumor type were counted and placed in individual centrifugation tubes. The tubes were centrifuged to obtain a cell pellet. The cells were then incubated with the targeted liposome compositions containing doxorubicin for 10 minutes at 37° C., with mild shaking, 140 rpm. Cells were treated with a quantity of liposomes sufficient to give a doxorubicin concentration of 40 μg/mL. […]

[3] = test system: A2780, Human Ovarian Carcinoma Cell line; experiment: Cytotoxicity assay (cell viability, CellTiter 96); type: cell-based; set-up: unit not given beside the values; conditions: ovarian cancer A2780; 10 minutes at 37° C., washed, plated 3 and 6 days
Protocol: as §1, §2, §3, §4

SMILES: COc1cccc2c1C(=O)c1c(O)c3c(c(O)c1C2=O)C[C@@](O)(C(=O)CO)C[C@@H]3O[C@H]1C[C@H](N)[C@H](O)[C@H](C)O1 [free dox, doxorubicin]
- binding and internalization into A375.S2 cells (A375.S2 cells): drug internalization is evident
- IC50 of doxorubicin [1]: >200
- IC50 of doxorubicin [2]: >200
- IC50 of doxorubicin [3]: >200
